Experimental data: a melting point compilation (Tetko et al.; mined from patent text by program, amines drawn as free bases though some values may be those of a salt)

Row | SMILES | melting point
1 | COC(=O)c1c(C(=O)OC)c2n(c1C)Cc1c(c3ccccc3n1C)C2 | 240 to 241 °C
2 | O=C(NO)[C@@H](CC(=O)N1CCOCC1)NS(=O)(=O)c1ccc(Oc2ccccc2)cc1 | 161 to 163 °C
3 | CCOC(=O)Cc1ccc(S(=O)(=O)C2CC2)cc1 | 102 to 104 °C
4 | O=c1ccn(-c2cccnc2)nc1-c1ccnn1-c1ccccc1 | 176 to 177 °C
5 | COc1cc(OCC(=O)O)c(C)cc1SCCc1ccc(-c2ccc(C(F)(F)F)cc2)cc1 | 169 to 171 °C
6 | Cc1ccc(OC(C(=O)OC2CC(O)C=C3C=CC(C)C(CCC4CC(O)CC(=O)O4)C32)c2ccccc2)cc1 (mixture of isomers) | 130 to 133 °C
7 | O=C(C=CCN1CCN(C[C@H]2CCC(=O)O2)CC1)Nc1cc2c(Nc3ccc(F)c(Cl)c3)ncnc2cc1OCC1CC1 | 145 to 150 °C
8 | C=C[C@H]1CN2CC[C@H]1C[C@H]2[C@H](OC(=O)c1ccc(OCCCCCC)cc1)c1ccnc2ccccc12 | 70 °C
9 | COC(=O)c1ccc(=O)[nH]c1 | 166 to 172 °C
10 | CCn1cc(C(=O)O)c(=O)c2c(C)c(F)c(N3CCNCC3)c(F)c21 | 223 to 225 °C
11 | COC(=O)N(Cc1nc(-c2ccccc2)c(-c2ccccc2)o1)c1cccc(OCC(=O)O)c1 | 153 to 155 °C
12 | COc1ccc2c(c1)S(=O)c1nccnc1N2 (stereo unspecified) | 240 to 241 °C
13 | Cn1ncnc1COc1nn2c(-c3ccccc3F)nnc2cc1CC1CCCC1 | 135 to 137 °C
14 | O=[N+]([O-])c1ccc(CN2CCCCc3ncccc32)cc1 | 231 to 233 °C
15 | CCCCCC(=O)CCC(C)=O | 18 °C
16 | COC(=O)C1=C(C)NC(C)=C(C(=O)O)C1c1cccc([N+](=O)[O-])c1 (stereo unspecified) | 196 to 197 °C
17 | COC(=O)c1nn(-c2ccccc2)c(=O)c2c1c1cc(Cl)ccc1n2C | 265 to 266 °C
18 | Clc1cc(N2CCC(N3CCN(c4cccc5[nH]ccc45)CC3)CC2)c2ncccc2c1 | 224 °C
19 | CCCCCCCSC[C@H](N[C@@H](C)C(=O)O)C(=O)OCC | 124 to 126 °C
20 | Cn1cc(C2=C(c3cn4c5c(cccc35)CCC4)C(=O)OC2=O)c2ccccc21 | 217 to 219 °C
21 | C=CCC1COC(CC)(CC(=O)O)c2[nH]c3c(C)c(F)ccc3c21 (stereo unspecified) | 138 to 140 °C
22 | O=C(O)C(Cc1ccccc1)NCC1c2c(c3ccccc3c3ccccc23)-c2c1c1ccccc1c1ccccc21 (stereo unspecified) | 178 to 180 °C
23 | C#CCCCCNC(=O)c1cnc(OCC(O)CNC(C)(C)C)s1 (stereo unspecified) | 140 to 148 °C
24 | O=c1cc(-c2ccncc2)nc2[nH]c3ccccc3n12 | 300 to 302 °C

Row | SMILES | melting point
25 | CNC(=O)c1sc(NC(C)=O)nc1CCc1ccc(NC(NC(=O)OC(C)(C)C)NC(=O)OC(C)(C)C)cc1 | 245 to 246 °C
26 | CCOC(=O)c1ccc([N+](=O)[O-])cc1C | 71 to 72 °C
27 | COc1ccc(Cl)c(CC(Nc2nc3ccc(Cl)cc3cc2C(=O)O)C(=O)O)c1 (stereo unspecified) | 180 to 185 °C
28 | COC(=O)C(=O)c1sccc1COc1ccccc1 | 98 to 99 °C
29 | CN1Cc2csc(=S)n2-c2ccc(F)c(F)c21 | 165 to 167 °C
30 | CCn1c(=NC(C)=O)c(-c2cc(OC)cc(OC)c2)cc2cnc(SC)nc21 | 145 to 150 °C
31 | O=C(O)c1ccc(Nc2cccc3ccccc23)cc1 | 227 to 229 °C
32 | CN1CCN(c2ccccc2-c2ccc(C#N)c(=O)[nH]2)CC1 | 202 to 203 °C
33 | C=C(C)C(=O)c1cc(O)c(O)c([N+](=O)[O-])c1 | 98 to 102 °C
34 | Cc1ccc2c(c1)C1CNCCC1N2 (stereo unspecified) | 73 to 75 °C
35 | CC1(C)[C@H](C(=O)O)[C@@H]1C=C1CCSC1=O | 162 °C
36 | CC[C@H](COC)n1cc(Br)nc(N2CCc3cc(OC)c(F)c(Cl)c32)c1=O | 150 to 152 °C
37 | Cc1nc(OCCN2CCOCC2)c([N+](=O)[O-])c(N2CCc3ccccc3CC2)n1 | 143 to 145 °C
38 | N#Cc1ccc2c(c1)C=C(C(=O)O)C(C(F)(F)F)O2 (stereo unspecified) | 102 to 106 °C
39 | CC(C)(C)OC(=O)NCC(O)c1ccccc1 (stereo unspecified) | 123 to 124 °C
40 | COc1cc(COc2nn(-c3ccccc3)cc2/C=C/c2csc(CO)n2)ccc1OCc1nc(-c2ccc(CC(=O)O)cc2)oc1C | 204 to 205 °C
41 | OCC1OC(c2c(Cl)c(Cl)cc3nc(Cl)cn23)C(O)C1O (stereo unspecified) | 267 to 268 °C
42 | CON=C(C1=NCCS1)c1ccccc1COc1cc(C)ccc1C | 79 to 82 °C
43 | COc1ccc2c(c1)c(Cc1cc(=O)n(-c3cccc([N+](=O)[O-])c3)[nH]1)c(C)n2C(=O)c1ccc(Cl)cc1 | 95 to 97 °C
44 | COc1cc(C)nc(N(C)C(=O)NS(=O)(=O)c2c(Cl)cccc2Cl)n1 | 170 to 171 °C
45 | CCN(CC)CCN1C(=O)C(OC(C)=O)C(c2ccc(OC)cc2)Sc2c1ccc1ccccc21 (stereo unspecified) | 148 to 149 °C
46 | Cc1cc(Br)c2nc(Cl)ccc2c1 | 107 to 108 °C
47 | CCCCc1nc2c(N)nc3ccccc3c2n1CCCC(C)=O | 173 to 176 °C
48 | COC(=O)C(O)=CC(=O)c1cn(Cc2ccccc2F)c(=O)n(Cc2ccccc2F)c1=O | 158 to 160 °C

Row | SMILES | melting point
49 | COc1cc(C)ccc1S(=O)(=O)OC(Cl)C(=O)c1ccccc1 (stereo unspecified) | 110 to 112 °C
50 | NCCCc1c[nH]c(-c2ccc(F)cc2)c1-c1ccncc1 | 198 to 199 °C
51 | CC(Cn1cncn1)c1ccc(Cl)cc1Cl (stereo unspecified) | 79.5 °C
52 | COc1ccc(OCC(=O)O)c2c(=O)c3ccccc3sc12 | 223 to 225 °C
53 | Cc1c(C)c(Cl)c(Cl)c(Cl)c1Cl | 85 to 89 °C
54 | COc1ccccc1CN1CCc2cc(O)ccc2C1 | 148 to 155 °C
55 | N#Cc1cccc(Cl)c1-c1[nH]c(=O)c(-c2ccccc2)cc1C(=O)O | 279 °C
56 | CCCN(CCC)CC(=O)OC1CC2(C)C(C#N)CCC2C2CCC3CC(O)CCC3(C)C12 (stereo unspecified) | 114 to 116 °C
57 | Cc1nc(N2CCCC(Cc3ccc(C(F)(F)F)cc3)C2=O)sc1C(=O)NCc1cccc(F)c1 (stereo unspecified) | 177 to 178 °C
58 | CC#CCOc1ccc(S(=O)[C@@H](C(=O)NO)c2ccc(-c3cccs3)cc2)cc1 (stereo partly specified) | 158 °C
59 | CN(C)CCCN1N=C2C(=Cc3ccccc3)CSCC2C1c1ccccc1 (stereo unspecified) | 83 to 85 °C
60 | CCCOC(=Nc1sc(Cl)cc1C#N)OCCC | 55 to 57 °C
61 | CCN1CC(=O)N(c2ccccc2SC)C1=S | 128 to 131 °C
62 | CNC(=O)c1cc(-c2c[nH]nc2-c2ccc(F)cc2)ccn1 | 88 to 89 °C
63 | COc1cc2c(cc1C(=O)O)nnn2C(C)=O | 208 to 212 °C
64 | CCC(NC(C)=O)c1ccc(CN2CCN(c3ccc(F)cc3)CC2)cc1 (stereo unspecified) | 113 to 114 °C
65 | COCOCc1cc(-c2ccc(C(=O)O)cc2)cc(-c2ccc3c(c2)C(C)(C)CCC3(C)C)c1 | 88 °C
66 | CCCC1CCC(c2ccc(-c3cc(F)c(C(F)(F)Oc4cc(F)c(C(F)(F)F)c(F)c4)c(F)c3)c(F)c2)OC1 (stereo unspecified) | 95 °C
67 | COc1cnc(-c2cccn3nc(Nc4ccc(C5CCN(CC(=O)N(C)C)CC5)cc4)nc23)cn1 | 185 to 187 °C
68 | COc1cc(OC)nc(Cc2ccccc2[N+](=O)[O-])n1 | 92 to 93 °C
69 | CCOC(=O)c1ccc(NC(=O)c2cccnc2)cc1 | 125 to 127 °C
70 | O=C1c2cccc(SCc3ccccc3)c2C(=O)c2cccc(SCc3ccccc3)c21 | 281 to 282 °C
71 | Nc1cccc(P(=O)(O)O)c1 | 300 °C
